Source: patent publication EP4501917A1, “3,4-DIHYDROQUINOXALINE-2-CARBOXIMIDE DERIVATIVE COMPOUND AND PHARMACEUTICAL COMPOSITION COMPRISING SAME FOR PREVENTING OR TREATING CANCER DISEASE” (Daegu-Gyeongbuk Medical Innovation Foundation, priority 2022, dated 2023)

What was measured:
HDAC8 = target: T1, HDAC8 (Homo sapiens, UniProt Q9BY41); assay: HDAC8 inhibitory activity analysis (in vitro), RFU analysis, HDAC Fluorogenic assay kit; format: biochemical; conditions: for RFU (%): compound final concentration 10 µM, HDAC substrate 2A 20 µM, positive control (1% DMSO) set to 100, lower = more inhibition; for inhibitory activity against HDAC8: result in words, summary of Table 2, 10 µM
T1 construct: purchased BPS bioscience
T1 sequence (Q9BY41 1-377): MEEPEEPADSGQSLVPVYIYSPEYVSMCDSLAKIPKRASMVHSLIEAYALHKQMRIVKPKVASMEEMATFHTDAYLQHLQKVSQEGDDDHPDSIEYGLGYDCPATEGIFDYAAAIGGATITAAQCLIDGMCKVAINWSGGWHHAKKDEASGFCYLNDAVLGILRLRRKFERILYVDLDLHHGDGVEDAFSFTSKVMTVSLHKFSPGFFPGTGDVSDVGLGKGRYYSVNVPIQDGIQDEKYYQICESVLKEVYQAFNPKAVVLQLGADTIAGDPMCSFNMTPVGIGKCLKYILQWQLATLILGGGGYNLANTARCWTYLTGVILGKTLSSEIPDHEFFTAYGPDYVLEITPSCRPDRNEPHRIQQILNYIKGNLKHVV
Procedure: The compound of the Example was diluted to 1 mM (1% DMSO concentration) using DMSO to obtain a final concentration of 10 µM, and prepared by diluting 1/10 with assay buffer. In a 96-well black round-bottom plate, 5 µL of the diluted compound of the Example, 5 µL of the diluted HDAC substrate 2A, 5 µL of BSA (1 mg/mL), 5 µL of the HDAC8 enzyme diluted to an appropriate concentration, and 30 µL of assay buffer were added, and the enzyme reaction was performed at 37°C for 30 minutes. […] Afterwards, 50 µL of 2X HDAC developer was added to each well. After reacting for 15 minutes at room temperature, the fluorescence values at excitation wavelengths of 350-380 nm and emission wavelengths of 440-460 nm were measured using a microplate reader (Synergy Neo).

[1] = tested on: PC-3 prostate cancer cells; assay: Prostate cancer cell growth inhibition, CCK-8 assay; format: cell-based, human; conditions: PC-3 cells, FIG. 1, result in words
Procedure: PC-3, a human-derived prostate cancer cell line, was cultured with RPMI1640 (10% fetal bovine serum, 1% Penicillin Streptomycin) culture medium at 37°C, 5% CO2 condition. All cells in the experiment were subcultured when they reached a confluency of approximately 80% to 90%, and only cells that had not passed 20 passages were used.
After culturing, 10 µL CCK-8 reagent was added and the absorbance was measured after 1 hour. The absorbance was measured at 450 nm using a microplate reader [BMG Labtech (Offenburg, Germany)].

Liver cancer cells Huh-7 = assay: Liver cancer cell growth inhibition, CellTiter-Glo Luminescent Cell Viability Assay; format: cell-based; conditions: Huh-7 cells, various concentrations, day 1, FIG. 6; result in words
Procedure: In addition, an analysis of liver cancer growth inhibitory activity was performed. Liver cancer cells Huh-7 cells were dispensed in a 96-well plate at 1 × 10^4 cells/ml, and after 20 hours, PCI34051, Example 27, and Example 35 were added at various concentrations, and cultured for 24 and 48 hours at 37°C in a 5% CO2 atmosphere. After culturing, 100 µl CellTiter-Glo Luminescent Cell Viability Assay reagent was added and the luminescence signal was measured after 0.5-1 hour. The luminescence signal was measured using IVIS [PerkinElmer, (Waltham, USA)].

Compound | RFU (%) (HDAC8) | inhibitory activity against HDAC8 (HDAC8) | also measured
Cc1cc2nc(C(=O)NCc3cc(Cl)cc(Cl)c3)c(=O)n(C[C@H](O)[C@H](O)[C@H](O)CO)c2cc1C [Example 7, N-(3,5-dichlorobenzyl)-6,7-dimethyl-3-oxo-4-((2S,3S,4R)-2,3,4,5-tetrahydroxypentyl)-3,4-dihydroquinoxaline-2-carboxamide] | 54.79% | – | –
Cc1cc2nc(C(=O)NCCc3ccc(Cl)cc3Cl)c(=O)n(C[C@H](O)[C@H](O)[C@H](O)CO)c2cc1C [Example 9, N-(2,4-dichlorophenethyl)-6,7-dimethyl-3-oxo-4-((2S,3S,4R)-2,3,4,5-tetrahydroxypentyl)-3,4-dihydroquinoxaline-2-carboxamide] | 66.28% | – | –
Cc1cc2nc(C(=O)Nc3cc(-c4ccc(Br)cc4)no3)c(=O)n(C[C@H](O)[C@H](O)[C@H](O)CO)c2cc1C [Example 10, N-(3-(4-bromophenyl)isoxazol-5-yl)-6,7-dimethyl-3-oxo-4-((2S,3S,4R)-2,3,4,5-tetrahydroxypentyl)-3,4-dihydroquinoxaline-2-carboxamide] | 16.61% | inhibitory activity similar to TSA or SAHA | –
Cc1cc2nc(C(=O)Nc3nnc(-c4ccc(Br)cc4)s3)c(=O)n(C[C@H](O)[C@H](O)[C@H](O)CO)c2cc1C [Example 11, N-(5-(4-bromophenyl)-1,3,4-thiadiazol-2-yl)-6,7-dimethyl-3-oxo-4-((2S,3S,4R)-2,3,4,5-tetrahydroxypentyl)-3,4-dihydroquinoxaline-2-carboxamide] | 63.24% | – | –
Cc1cc2nc(C(=O)Nc3cc(-c4ccc(Br)cc4)n[nH]3)c(=O)n(C[C@H](O)[C@H](O)[C@H](O)CO)c2cc1C [Example 12, N-(3-(4-bromophenyl)-1H-pyrazol-5-yl)-6,7-dimethyl-3-oxo-4-((2S,3S,4R)-2,3,4,5-tetrahydroxypentyl)-3,4-dihydroquinoxaline-2-carboxamide] | 58.97% | – | –
Cc1cc2nc(C(=O)NCc3nc4ccccc4[nH]3)c(=O)n(C[C@H](O)[C@H](O)[C@H](O)CO)c2cc1C [Example 24, N-((1H-benzo[d]imidazol-2-yl)methyl)-6,7-dimethyl-3-oxo-4-((2S,3S,4R)-2,3,4,5-tetrahydroxypentyl)-3,4-dihydroquinoxaline-2-carboxamide] | 42.03% | – | –
COC(=O)C1CCC(NC(=O)c2nc3cc(C)c(C)cc3n(C[C@H](O)[C@H](O)[C@H](O)CO)c2=O)C1 (stereo partly drawn) [Example 33, methyl 3-(6,7-dimethyl-3-oxo-4-((2S,3S,4R)-2,3,4,5-tetrahydroxypentyl)-3,4-dihydroquinoxaline-2-carboxamido)cyclopentane-1-carboxylate] | 69.48% | – | –
Cc1cc2nc(C(=O)Nc3nc4c(F)cccc4[nH]3)c(=O)n(C[C@H](O)[C@H](O)[C@H](O)CO)c2cc1C [Example 35, N-(4-fluoro-1H-benzo[d]imidazol-2-yl)-6,7-dimethyl-3-oxo-4-((2S,3S,4R)-2,3,4,5-tetrahydroxypentyl)-3,4-dihydroquinoxaline-2-carboxamide] | 8.23% | inhibitory activity similar to TSA or SAHA | cell viability ([1]; after 24 hours): concentration-dependent inhibition of cancer cell viability; cell viability ([1]; after 48 hours): cell viability was restored; cell viability (Liver cancer cells Huh-7): concentration-dependent inhibition of cancer cell viability
Cc1cc2nc(C(=O)Nc3ccc(C(=O)NO)cc3)c(=O)n(C[C@H](O)[C@H](O)[C@H](O)CO)c2cc1C [Example 48, N-(4-(hydroxycarbamoyl)phenyl)-6,7-dimethyl-3-oxo-4-((2S,3S,4R)-2,3,4,5-tetrahydroxypentyl)-3,4-dihydroquinoxaline-2-carboxamide] | 10.48% | inhibitory activity similar to TSA or SAHA | –
Cc1cc2nc(C(=O)Nc3cc(C(=O)NO)ccc3C)c(=O)n(C[C@H](O)[C@H](O)[C@H](O)CO)c2cc1C [Example 51, N-(5-(hydroxycarbamoyl)-2-methylphenyl)-6,7-dimethyl-3-oxo-4-((2S,3S,4R)-2,3,4,5-tetrahydroxypentyl)-3,4-dihydroquinoxaline-2-carboxamide] | 5.81% | inhibitory activity similar to TSA or SAHA | –
Cc1cc2nc(C(=O)NC3CCC(C(=O)NO)C3)c(=O)n(C[C@H](O)[C@H](O)[C@H](O)CO)c2cc1C (stereo partly drawn) [Example 52, N-(3-(hydroxycarbamoyl)cyclopentyl)-6,7-dimethyl-3-oxo-4-((2S,3S,4R)-2,3,4,5-tetrahydroxypentyl)-3,4-dihydroquinoxaline-2-carboxamide] | 41.96% | – | –
COc1ccc(Cn2ccc3ccc(C(=O)NO)cc32)cc1 [PCI-34051, N-hydroxy-1-(4-methoxybenzyl)-1H-indole-6-carboxamide, reference compound] | 1.86% | – | cell viability (Liver cancer cells Huh-7): concentration-dependent inhibition of cancer cell viability
O=C(CCCCCCC(=O)Nc1ccccc1)NO [SAHA, suberoylanilide hydroxamic acid, reference compound] | 38.57% | – | –

The next lines start with results.

RFU (%) (HDAC8) | Compound | inhibitory activity against HDAC8 (HDAC8) | also measured
85.71% | Cc1cc2nc(C(=O)NCc3ccc(F)cc3)c(=O)n(C[C@H](O)[C@H](O)[C@H](O)CO)c2cc1C [Example 4, N-(4-fluorobenzyl)-6,7-dimethyl-3-oxo-4-((2S,3S,4R)-2,3,4,5-tetrahydroxypentyl)-3,4-dihydroquinoxaline-2-carboxamide] | – | –
85.37% | Cc1cc2nc(C(=O)NCc3ccc(Cl)c(Cl)c3)c(=O)n(C[C@H](O)[C@H](O)[C@H](O)CO)c2cc1C [Example 8, N-(3,4-dichlorobenzyl)-6,7-dimethyl-3-oxo-4-((2S,3S,4R)-2,3,4,5-tetrahydroxypentyl)-3,4-dihydroquinoxaline-2-carboxamide] | – | –
34.05% | Cc1cc2nc(C(=O)NCc3ccc4[nH]cnc4c3)c(=O)n(C[C@H](O)[C@H](O)[C@H](O)CO)c2cc1C [Example 34, N-((1H-benzo[d]imidazol-5-yl)methyl)-6,7-dimethyl-3-oxo-4-((2S,3S,4R)-2,3,4,5-tetrahydroxypentyl)-3,4-dihydroquinoxaline-2-carboxamide] | inhibitory activity similar to TSA or SAHA | –
53.58% | Cc1cc2nc(C(=O)NCc3ccc(C(=O)NO)cc3)c(=O)n(C[C@H](O)[C@H](O)[C@H](O)CO)c2cc1C [Example 47, N-(4-(hydroxycarbamoyl)benzyl)-6,7-dimethyl-3-oxo-4-((2S,3S,4R)-2,3,4,5-tetrahydroxypentyl)-3,4-dihydroquinoxaline-2-carboxamide] | – | –
35.15% | Cc1cc2nc(C(=O)NCc3ccc(CC(=O)NO)cc3)c(=O)n(C[C@H](O)[C@H](O)[C@H](O)CO)c2cc1C [Example 49, N-(4-(2-(hydroxyamino)-2-oxoethyl)benzyl)-6,7-dimethyl-3-oxo-4-((2S,3S,4R)-2,3,4,5-tetrahydroxypentyl)-3,4-dihydroquinoxaline-2-carboxamide] | inhibitory activity similar to TSA or SAHA | –
51.23% | Cc1cc2nc(C(=O)NCc3cccc(C(=O)NO)c3)c(=O)n(C[C@H](O)[C@H](O)[C@H](O)CO)c2cc1C [Example 50, N-(3-(hydroxycarbamoyl)benzyl)-6,7-dimethyl-3-oxo-4-((2S,3S,4R)-2,3,4,5-tetrahydroxypentyl)-3,4-dihydroquinoxaline-2-carboxamide] | – | –
